One assay deals with MHH-CALL-2. Briefly: selective drug sensitivity score (sDSS, relative to normal bone marrow) (sDSS (score)); higher = more potent and effective on the cell line relative to normal bone marrow cells. The note with it: 72 h.
As to `Nc1nc2cc(-c3ccc4ncc(C(=O)N5CCOCC5)n4c3)ccc2o1` [Serabelisib] (top concentration 10000 nM), the “selective drug sensitivity score” value is 3.06.
On the same count and under the same terms, the figure for `COc1cccc(-c2ccc(NC(=O)C3=C(C(=O)O)CCC3)c(F)c2)c1` [Vidofludimus] (top concentration 10000 nM) is 3; for `Cc1cccc(-c2nn3c(c2-c2ccnc4ccc(C(N)=O)cc24)CCC3)n1` [Galunisertib] (top concentration 1000 nM) it is 8.5; for `COc1cc2c(N3CCN(C(=O)Nc4ccc(OC(C)C)cc4)CC3)ncnc2cc1OCCCN1CCCCC1` [Tandutinib] (top concentration 1000 nM) it is 0.
The same measure, in the same setting: the figure for `Cc1c(F)cc(C(=O)NC2CC2)cc1-c1ccc(C(=O)NCC(C)(C)C)cn1` [Losmapimod] (top concentration 10000 nM) is -0.18.
The same measure, in the same setting: the figure for `Nc1nc(N)c2nc(-c3cccc(O)c3)c(-c3cccc(O)c3)nc2n1` [TG100-115] (top concentration 10000 nM) is 5.2; for `C[C@]12CC[C@@H]3c4ccc(O)cc4C[C@@H](CCCCCCCCC[S+]([O-])CCCC(F)(F)C(F)(F)F)[C@H]3[C@@H]1CC[C@@H]2O` (stereo not given in full) [Fulvestrant] (top concentration 1000 nM) it is 1.5.
For the compound `O=C(Nc1cccnc1)N1CCC(Cc2cccc(Oc3ccc(C(F)(F)F)cn3)c2)CC1` [PF-3845] (top concentration 10000 nM), the “selective drug sensitivity score” value is -0.24.
Same read-out and setting: the figure for `COc1cc2c(cc1OCCCN1CCCC1)N=C(N)C21CCC1` [A-366] (top concentration 25000 nM) is -1.14.
In the case of `Oc1ncnc2[nH]ncc12` [Allopurinol] (top concentration 10000 nM), the “selective drug sensitivity score” value is -0.64.
On the same count and under the same terms, the value for `CC(C)n1cnc2c(NCCc3ccc(O)cc3)nc(-c3csc4ccccc34)nc21` [StemRegenin_1] (top concentration 10000 nM) was 2.5; that for `C#Cc1cccc(Nc2ncnc3cc4c(cc23)OCCOCCOCCO4)c1` [Icotinib] (top concentration 10000 nM) was 4.8.
On the same count and under the same terms, the figure for `CN[C@@H](C)C(=O)N[C@H]1CN(C(=O)CC(C)C)CC[C@H]2CC[C@@H](C(=O)NC(c3ccccc3)c3ccccc3)N2C1=O` [AT-406] (top concentration 10000 nM) is 2.14; for `CC(C)(O)CC(=O)NCCn1ccc2ncnc(Nc3ccc(Oc4cccc(C(F)(F)F)c4)c(Cl)c3)c21` [TAK-285] (top concentration 2500 nM) it is 1.6; for `COc1cc(C)[nH]c(=O)c1CNC(=O)c1c(C)n([C@H](C)C2CCOCC2)c2ccccc12` [CPI-360] (top concentration 10000 nM) it is 1.1.
With `Cc1cc2c(C(=O)NC[C@H](C)c3ccccc3)c(O)c(O)cc2c(O)c1-c1c(C)cc2c(C(=O)NC[C@H](C)c3ccccc3)c(O)c(O)cc2c1O` [Sabutoclax] (top concentration 25000 nM), the “selective drug sensitivity score” value was -7.82.
On the same count and under the same terms, the value for `CC(C)(C)C[C@@H]1N[C@@H](C(=O)N[C@H]2CC[C@H](O)CC2)[C@H](c2cccc(Cl)c2F)[C@]12C(=O)Nc1cc(Cl)ccc12` (top concentration 10000 nM) was 13.2.
Same read-out and setting: the value for `C[C@@H]1C[C@H]2[C@@H]3CCC4=CC(=O)C=C[C@]4(C)[C@@]3(F)[C@@H](O)C[C@]2(C)[C@@]1(O)C(=O)CO` [Dexamethasone] (top concentration 10000 nM) was 28.9.

A further assay deals with MOLT-16. The assay is described as above. The note with it: 72 h.
As to `Nc1nc2cc(-c3ccc4ncc(C(=O)N5CCOCC5)n4c3)ccc2o1` [Serabelisib] (top concentration 10000 nM), the “selective drug sensitivity score” value was -0.94.
On the same count and under the same terms, the figure for `COc1cccc(-c2ccc(NC(=O)C3=C(C(=O)O)CCC3)c(F)c2)c1` [Vidofludimus] (top concentration 10000 nM) is 5.4; for `Cc1cccc(-c2nn3c(c2-c2ccnc4ccc(C(N)=O)cc24)CCC3)n1` [Galunisertib] (top concentration 1000 nM) it is 0.
The same measure, in the same setting: the figure for `COc1cc2c(N3CCN(C(=O)Nc4ccc(OC(C)C)cc4)CC3)ncnc2cc1OCCCN1CCCCC1` [Tandutinib] (top concentration 1000 nM) is 0; for `Cc1c(F)cc(C(=O)NC2CC2)cc1-c1ccc(C(=O)NCC(C)(C)C)cn1` [Losmapimod] (top concentration 10000 nM) it is 0.12; for `Nc1nc(N)c2nc(-c3cccc(O)c3)c(-c3cccc(O)c3)nc2n1` [TG100-115] (top concentration 10000 nM) it is 1.1.
The same measure, in the same setting: the figure for `C[C@]12CC[C@@H]3c4ccc(O)cc4C[C@@H](CCCCCCCCC[S+]([O-])CCCC(F)(F)C(F)(F)F)[C@H]3[C@@H]1CC[C@@H]2O` (stereo not given in full) [Fulvestrant] (top concentration 1000 nM) is 0; for `O=C(Nc1cccnc1)N1CCC(Cc2cccc(Oc3ccc(C(F)(F)F)cn3)c2)CC1` [PF-3845] (top concentration 10000 nM) it is 2.66; for `COc1cc2c(cc1OCCCN1CCCC1)N=C(N)C21CCC1` [A-366] (top concentration 25000 nM) it is 3.46.
For the compound `Oc1ncnc2[nH]ncc12` [Allopurinol] (top concentration 10000 nM), the “selective drug sensitivity score” value is -0.64.
Still for that read-out and setting: the figure for `CC(C)n1cnc2c(NCCc3ccc(O)cc3)nc(-c3csc4ccccc34)nc21` [StemRegenin_1] (top concentration 10000 nM) is 4.4; for `C#Cc1cccc(Nc2ncnc3cc4c(cc23)OCCOCCOCCO4)c1` [Icotinib] (top concentration 10000 nM) it is 2.2; for `CN[C@@H](C)C(=O)N[C@H]1CN(C(=O)CC(C)C)CC[C@H]2CC[C@@H](C(=O)NC(c3ccccc3)c3ccccc3)N2C1=O` [AT-406] (top concentration 10000 nM) it is -1.26.
On the same count and under the same terms, the figure for `CC(C)(O)CC(=O)NCCn1ccc2ncnc(Nc3ccc(Oc4cccc(C(F)(F)F)c4)c(Cl)c3)c21` [TAK-285] (top concentration 2500 nM) is 0; for `COc1cc(C)[nH]c(=O)c1CNC(=O)c1c(C)n([C@H](C)C2CCOCC2)c2ccccc12` [CPI-360] (top concentration 10000 nM) it is 0.
The same measure, in the same setting: the figure for `Cc1cc2c(C(=O)NC[C@H](C)c3ccccc3)c(O)c(O)cc2c(O)c1-c1c(C)cc2c(C(=O)NC[C@H](C)c3ccccc3)c(O)c(O)cc2c1O` [Sabutoclax] (top concentration 25000 nM) is 17.6.
With `CC(C)(C)C[C@@H]1N[C@@H](C(=O)N[C@H]2CC[C@H](O)CC2)[C@H](c2cccc(Cl)c2F)[C@]12C(=O)Nc1cc(Cl)ccc12` (top concentration 10000 nM), the “selective drug sensitivity score” value amounted to 12.5.
Still for that read-out and setting: the figure for `C[C@@H]1C[C@H]2[C@@H]3CCC4=CC(=O)C=C[C@]4(C)[C@@]3(F)[C@@H](O)C[C@]2(C)[C@@]1(O)C(=O)CO` [Dexamethasone] (top concentration 10000 nM) is 9.68.

The test system of a further assay is MOLT-4. The description is as above. The note with it: 72 h.
In the case of `Nc1nc2cc(-c3ccc4ncc(C(=O)N5CCOCC5)n4c3)ccc2o1` [Serabelisib] (top concentration 10000 nM), the “selective drug sensitivity score” value was -1.54.
`COc1cccc(-c2ccc(NC(=O)C3=C(C(=O)O)CCC3)c(F)c2)c1` [Vidofludimus] (top concentration 10000 nM): the “selective drug sensitivity score” value is 3.6.
The same measure, in the same setting: the value for `Cc1cccc(-c2nn3c(c2-c2ccnc4ccc(C(N)=O)cc24)CCC3)n1` [Galunisertib] (top concentration 1000 nM) was 0.
Still for that read-out and setting: the figure for `COc1cc2c(N3CCN(C(=O)Nc4ccc(OC(C)C)cc4)CC3)ncnc2cc1OCCCN1CCCCC1` [Tandutinib] (top concentration 1000 nM) is 0; for `Cc1c(F)cc(C(=O)NC2CC2)cc1-c1ccc(C(=O)NCC(C)(C)C)cn1` [Losmapimod] (top concentration 10000 nM) it is -0.18.
Turning to `Nc1nc(N)c2nc(-c3cccc(O)c3)c(-c3cccc(O)c3)nc2n1` [TG100-115] (top concentration 10000 nM), the “selective drug sensitivity score” value was -0.4.
As for `C[C@]12CC[C@@H]3c4ccc(O)cc4C[C@@H](CCCCCCCCC[S+]([O-])CCCC(F)(F)C(F)(F)F)[C@H]3[C@@H]1CC[C@@H]2O` (stereo not given in full) [Fulvestrant] (top concentration 1000 nM), the “selective drug sensitivity score” value was 0.
`O=C(Nc1cccnc1)N1CCC(Cc2cccc(Oc3ccc(C(F)(F)F)cn3)c2)CC1` [PF-3845] (top concentration 10000 nM): the “selective drug sensitivity score” value came to 2.36.
On the same count and under the same terms, the figure for `COc1cc2c(cc1OCCCN1CCCC1)N=C(N)C21CCC1` [A-366] (top concentration 25000 nM) is 1.36.

The record behind these values is the supplement of paper PMC8967900.
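Note: ALL cell lines in 384-well plates, five doses spanning 10,000-fold, each plate scaled between vehicle and 100 µmol/L benzalkonium chloride controls, sDSS an adapted area-under-curve metric.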
